Source: US11571416B2, “Amodiaquine analogs and methods of uses thereof” (priority 2017, dated 2023)

How the values were obtained:
[1] = test system: EBOV-GFP (recombinant Ebolavirus encoding a GFP reporter gene); test: microbe, parasite or virus in culture; format: cell-based; conditions: for IC50: Orthoebolavirus
[2] = Cytotoxicity, CellTiter-Glo Luminescent Cell Viability Assay; conditions: human, Huh7 cells

Row | SMILES | Selectivity index [1] | IC50 ([1]; Huh-7) [nM] | IC50 ([1]; Huh-7, 24 h) [nM] | CC50 at 24 h [2] [nM] | antiviral activity / potency in words [1] | fold potency relative to amodiaquine [1] [fold]
1 | CCCN(CC)Cc1cc(Nc2ccnc3cc(I)ccc23)ccc1O [Compound 40, 4-(7-iodoquinolin-4-ylamino)-2-ethylpropylaminomethylphenol] | >278 | 360 | 360 ± 40 | > 100000 | – | –
2 | CCN(C)Cc1cc(Nc2ccnc3cc(I)ccc23)ccc1O [Compound 31, 4-(7-iodoquinolin-4-ylamino)-2-ethylmethylaminomethylphenol] | >161 | 620 | 620 ± 60 | > 100000 | – | –
3 | CN(C)Cc1cc(Nc2ccnc3cc(Cl)ccc23)ccc1O [Compound 10, 4-(7-chloroquinolin-4-ylamino)-2-dimethylaminomethylphenol] | – | – | 2140 ± 210 | – | – | –
4 | CCN(CC)Cc1cc(Nc2ccnc3ccccc23)ccc1O [Compound 12, 2-[(diethylamino)methyl]-4-(quinolin-4-ylamino)phenol] | – | – | 2140 ± 180 | – | – | –
5 | CN1CCN(Cc2cc(Nc3ccnc4cc(Cl)ccc34)ccc2O)CC1 [Compound 13, 4-(7-chloroquinolin-4-ylamino)-2-(4-methyl-1-piperazinyl)methylphenol] | – | – | 1680 ± 190 | – | did not decrease potency | –
6 | CCN(C)Cc1cc(Nc2ccnc3cc(Cl)ccc23)ccc1O [Compound 16, 4-(7-chloroquinolin-4-ylamino)-2-(ethylmethylamino)methylphenol] | – | – | 2080 ± 220 | – | – | –
7 | CCCCN(C)Cc1cc(Nc2ccnc3cc(Cl)ccc23)ccc1O [Compound 25, 4-(7-chloroquinolin-4-ylamino)-2-(butylmethylamino)methylphenol] | 77 | 860 | 860 ± 80 | 65900 | – | –
8 | Oc1ccc(Nc2ccnc3cc(I)ccc23)cc1CN1CCCC1 [Compound 42, 4-(7-iodoquinolin-4-ylamino)-2-(1-pyrrolidinylmethyl)phenol] | 54 | 660 | 660 ± 50 | 35300 | – | –
9 | CCCCN(CC)Cc1cc(Nc2ccnc3cc(I)ccc23)ccc1O [Compound 41, 4-(7-iodoquinolin-4-ylamino)-2-ethylbutylaminomethylphenol] | 147 | 410 | 410 ± 40 | 60400 | – | –
10 | CCN(CC)Cc1cc(Nc2ccnc3cc(Br)ccc23)ccc1O [Compound 4, 4-(7-bromoquinolin-4-ylamino)-2-diethylamino-methylphenol] | – | – | 1550 ± 140 | – | – | 1.4
11 | CCCCN(C)Cc1cc(Nc2ccnc3cc(I)ccc23)ccc1O [Compound 35, 4-(7-iodoquinolin-4-ylamino)-2-butylmethylaminomethylphenol] | 150 | 440 | 440 ± 40 | 66100 | – | –
12 | CCN(CC)Cc1cc(Nc2ccnc3cc(F)ccc23)ccc1O [Compound 5, 4-(7-fluoroquinolin-4-ylamino)-2-diethylaminomethylphenol] | – | – | 2780 ± 280 | – | weaker than amiodiaquine | –
13 | Oc1ccc(Nc2ccnc3cc(Cl)ccc23)cc1CN1CCCC(O)C1 (stereo not drawn) [Compound 19, 4-(7-chloroquinolin-4-ylamino)-2-(3-hydroxy-1-piperidinyl)methylphenol] | – | – | 1800 ± 280 | – | did not decrease potency | –
14 | CC(C)N(C)Cc1cc(Nc2ccnc3cc(Cl)ccc23)ccc1O [Compound 8, 4-(7-chloroquinolin-4-ylamino)-2-(isopropylmethylamino)methylphenol] | 27 | 1460 | 1460 ± 140 | 39200 | – | –
15 | CN(Cc1cc(Nc2ccnc3cc(I)ccc23)ccc1O)C(C)(C)C [Compound 33, 4-(7-iodoquinolin-4-ylamino)-2-tert-butylmethylaminomethylphenol] | 108 | 300 | 300 ± 40 | 32300 | – | –
16 | C=CCN(CC=C)Cc1cc(Nc2ccnc3cc(Cl)ccc23)ccc1O [Compound 27, 4-(7-chloroquinolin-4-ylamino)-2-bis(2-propen-1-yl)aminomethylphenol] | – | – | 2320 ± 320 | – | – | –
17 | CCCN(C)Cc1cc(Nc2ccnc3cc(I)ccc23)ccc1O [Compound 34, 4-(7-iodoquinolin-4-ylamino)-2-methylpropylaminomethylphenol] | >233 | 430 | 430 ± 60 | > 100000 | – | –
18 | CN(C)Cc1cc(Nc2ccnc3cc(I)ccc23)ccc1O [Compound 30, 4-(7-iodoquinolin-4-ylamino)-2-dimethylaminomethylphenol] | >145 | 690 | 690 ± 80 | > 100000 | – | –
19 | CC(C)N(C)Cc1cc(Nc2ccnc3cc(I)ccc23)ccc1O [Compound 32, 4-(7-iodoquinolin-4-ylamino)-2-isopropylmethylaminomethylphenol] | 132 | 290 | 290 ± 40 | 38400 | – | –
20 | CCCN(CC)Cc1cc(Nc2ccnc3cc(Cl)ccc23)ccc1O [Compound 29, 4-(7-chloroquinolin-4-ylamino)-2-(ethylpropylamino)methylphenol] | >72 | 1390 | 1390 ± 130 | > 100000 | – | –

Row | SMILES | Selectivity index [1] | IC50 ([1]; Huh-7) [nM] | IC50 ([1]; Huh-7, 24 h) [nM] | CC50 at 24 h [2] [nM] | antiviral activity / potency in words [1] | fold potency relative to amodiaquine [1] [fold]
21 | Oc1ccc(Nc2ccnc3cc(I)ccc23)cc1CN1CCCCC1 [Compound 43, 4-(7-iodoquinolin-4-ylamino)-2-(1-piperidinylmethyl)phenol] | >270 | 370 | 370 ± 70 | > 100000 | – | –
22 | Oc1ccc(Nc2ccnc3cc(I)ccc23)cc1CN1CCOCC1 [Compound 44, 4-(7-iodoquinolin-4-ylamino)-2-(4-morpholinylmethyl)phenol] | >63 | 1590 | 1590 ± 120 | > 100000 | – | –
23 | CCN(CC)Cc1cc(Nc2c3ccccc3nc3ccccc23)ccc1O [Compound 6, 4-(9-acridinylamino)-2-[(diethylamino)methyl]phenol] | – | – | 1640 ± 220 | – | – | –
24 | CCN(CC)Cc1cc(Nc2ccnc3cc(C(F)(F)F)ccc23)ccc1O [Compound 2] | – | – | 5870 ± 1460 | – | – | –
25 | CCN(CC)Cc1cc(Nc2ccnc3cc(Cl)ccc23)cc(-c2ccc(Cl)cc2)c1O [Compound 20, 6-(4-chlorophenyl)-4-(7-chloroquinolin-4-ylamino)-2-diethylaminomethylphenol] | 15 | 1310 | 1310 ± 100 | 19500 | – | 1.6
26 | Oc1ccc(Nc2ccnc3cc(Cl)ccc23)cc1CN1CCOCC1 [Compound 24] | – | – | 6030 ± 410 | – | – | –
27 | CCN(CCO)Cc1cc(Nc2ccnc3cc(I)ccc23)ccc1O [Compound 39, 4-(7-iodoquinolin-4-ylamino)-2-ethyl(2-hydroxyethyl)aminomethylphenol] | >244 | 410 | 410 ± 50 | > 100000 | – | –
28 | CC(C)(C)NCc1cc(Nc2ccnc3cc(Cl)ccc23)ccc1O [Compound 9, 4-(7-chloroquinolin-4-ylamino)-2-tert-butylaminomethylphenol] | 22 | 1210 | 1210 ± 90 | 26100 | – | –
29 | CCCCCCNCc1cc(Nc2ccnc3cc(Cl)ccc23)ccc1O [Compound 23, 4-(7-chloroquinolin-4-ylamino)-2-hexylaminomethylphenol] | 18 | 290 | 290 ± 30 | 5180 | – | –
30 | CCCCCCN(C)Cc1cc(Nc2ccnc3cc(I)ccc23)ccc1O [Compound 37, 4-(7-iodoquinolin-4-ylamino)-2-hexylmethylaminomethylphenol] | >256 | 390 | 390 ± 20 | > 100000 | – | –
31 | CCN(CCO)Cc1cc(Nc2ccnc3cc(Cl)ccc23)ccc1O [Compound 17, 4-(7-chloroquinolin-4-ylamino)-2-[ethyl(2-hydroxyethyl)amino]methylphenol] | – | – | 1770 ± 180 | – | did not decrease potency | –
32 | Oc1ccc(Nc2ccnc3cc(Cl)ccc23)cc1CN1CC[C@@H](O)C1 [Compound 22] | – | – | 1730 ± 90 | – | did not decrease potency | –
33 | Oc1ccc(Nc2ccnc3cc(Cl)ccc23)cc1CN1CCCC1 [Compound 21, 4-(7-chloroquinolin-4-ylamino)-2-pyrrolidinylmethylphenol] | 30 | 1090 | 1090 | 33200 | – | –
34 | C#CCN(CC#C)Cc1cc(Nc2ccnc3cc(Cl)ccc23)ccc1O [Compound 1, 4-(7-chloroquinolin-4-ylamino)-2-bis(2-propyne-1-yl)aminomethylphenol] | – | – | 5780 ± 1490 | – | reduced antiviral activity | –
35 | Oc1ccc(Nc2ccnc3cc(I)ccc23)cc1CN1CCSCC1 [Compound 45, 4-(7-iodoquinolin-4-ylamino)-2-(4-thiamorpholinylmethyl)phenol] | >51 | 1950 | 1950 ± 220 | > 100000 | – | –
36 | CCCCCCCCN(C)Cc1cc(Nc2ccnc3cc(I)ccc23)ccc1O [Compound 38, 4-(7-iodoquinolin-4-ylamino)-2-methyloctylaminomethylphenol] | >385 | 260 | 260 ± 60 | > 100000 | – | –
37 | CCN(Cc1cc(Nc2ccnc3cc(Cl)ccc23)ccc1O)C(C)C [Compound 11, 4-(7-chloroquinolin-4-ylamino)-2-(ethylisopropylamino)methylphenol] | 41 | 1460 | 1460 ± 150 | 60500 | – | –
38 | CN(Cc1cc(Nc2ccnc3cc(Cl)ccc23)ccc1O)c1ccccc1 [Compound 3] | – | – | 6390 ± 930 | – | reduced antiviral activity | –
39 | CCCCCN(C)Cc1cc(Nc2ccnc3cc(I)ccc23)ccc1O [Compound 36, 4-(7-iodoquinolin-4-ylamino)-2-methylpentylaminomethylphenol] | >270 | 370 | 370 ± 40 | > 100000 | – | –
